For series [1] the following is noted: intravenous bolus, 75 mg/m^2, ovarian cancer; cited from earlier work.
A short description of series [2]: Pharmacokinetics and tolerated dose of intravenous mitoxantrone chemotherapy reported in a document. As to conditions: 75 mg/m^2 intravenous bolus versus 3143 ng×min/ml. In kind it is in vivo, human. As for the experimental part: Moreover, the drug is metabolized rapidly after entering the blood, and the drug in the plasma is almost completely metabolized 60 min, 120 min at most, after the administration.

For orientation: AUC means the area under the concentration-time curve, a measure of exposure.

`O=C1c2c(O)ccc(O)c2C(=O)c2c(NCCNCCO)ccc(NCCNCCO)c21` [mitoxantrone]: in series [1], the AUC is 560 to 1700 ng·h/mL. For the same compound, the “AUC of the document as multiple of the maximum AUC in the present trial” value in series [2] was 10.7-32.5 times.
